Measurements: article PMC12564180 (International Journal of Molecular Sciences, 2025)

Columns and labels:
[1] = target: T1, CYP2B6 (Homo sapiens, UniProt P20813); assay: Incubation of [3H]filapixant with human recombinant CYP2B6 (Supersomes); assay type: in vitro ADME; settings: 1 µM [3H]filapixant, CYP2B6, 60 min
T1 construct: purchased
T1 sequence (P20813 1-491): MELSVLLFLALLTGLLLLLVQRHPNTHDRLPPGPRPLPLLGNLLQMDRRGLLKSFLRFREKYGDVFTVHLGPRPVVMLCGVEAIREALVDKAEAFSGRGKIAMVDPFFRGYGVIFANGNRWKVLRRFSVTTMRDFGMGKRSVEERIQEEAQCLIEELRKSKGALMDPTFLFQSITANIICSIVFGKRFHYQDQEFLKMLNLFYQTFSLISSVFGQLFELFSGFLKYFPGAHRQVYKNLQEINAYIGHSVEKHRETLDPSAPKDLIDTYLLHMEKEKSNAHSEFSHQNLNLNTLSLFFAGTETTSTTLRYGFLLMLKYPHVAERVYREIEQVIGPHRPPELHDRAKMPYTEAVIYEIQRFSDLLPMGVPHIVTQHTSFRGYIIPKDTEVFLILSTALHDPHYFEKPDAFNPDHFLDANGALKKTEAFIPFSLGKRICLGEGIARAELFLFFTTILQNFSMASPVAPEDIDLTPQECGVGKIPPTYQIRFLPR

[2] = Biotransformation and enzyme kinetics of filapixant in human liver microsomes; assay type: in vitro ADME; settings: [3H]filapixant 1 µM, pooled human liver microsomes, 1 h of incubation, n = 1
Experimental: (§1) The incubations were analyzed by high-performance liquid chromatography (HPLC) with tandem mass spectroscopy (MS/MS) followed by off-line radioactivity detection to generate metabolite profiles and elucidate or confirm the structures of the metabolites formed.

[3] = target: T2, CYP1A1 (Homo sapiens, UniProt P04798); assay: Incubation of filapixant with human recombinant CYP1A1 (Supersomes); assay type: in vitro ADME; settings: 1 µM [3H]filapixant, CYP1A1, 60 min
T2 construct: purchased
T2 sequence (P04798 1-512): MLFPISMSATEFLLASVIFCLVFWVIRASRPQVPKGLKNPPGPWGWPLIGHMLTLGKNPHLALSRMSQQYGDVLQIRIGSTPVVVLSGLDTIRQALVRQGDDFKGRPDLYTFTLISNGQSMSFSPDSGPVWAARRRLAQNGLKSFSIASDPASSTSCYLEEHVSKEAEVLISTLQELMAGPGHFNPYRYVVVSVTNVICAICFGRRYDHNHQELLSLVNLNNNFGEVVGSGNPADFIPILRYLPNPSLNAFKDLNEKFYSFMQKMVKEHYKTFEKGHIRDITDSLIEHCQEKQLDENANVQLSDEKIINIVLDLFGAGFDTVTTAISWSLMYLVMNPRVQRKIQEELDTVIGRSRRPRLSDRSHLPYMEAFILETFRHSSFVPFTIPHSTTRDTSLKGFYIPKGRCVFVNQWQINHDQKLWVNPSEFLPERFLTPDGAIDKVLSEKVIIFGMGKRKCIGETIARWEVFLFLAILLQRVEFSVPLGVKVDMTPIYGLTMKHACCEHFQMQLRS

[4] = target: T3, CYP3A5 (Homo sapiens, UniProt P20815); assay: Incubation of [3H]filapixant with human recombinant CYP3A5 (Supersomes); assay type: in vitro ADME; settings: 1 µM [3H]filapixant, CYP3A5, 60 min
T3 construct: purchased

[5] = target: T4, CYP3A4 (Homo sapiens, UniProt P08684); assay: Incubation of filapixant with human recombinant CYP3A4 (Supersomes); assay type: in vitro ADME; settings: for Remaining drug and formation of metabolites, Peak Area: 1 µM [3H]filapixant, CYP3A4, 60 min; for Vmax of metabolite formation: filapixant in recombinant human CYP3A4 (25 pmol/mL), 20 min incubation
T4 construct: purchased

[6] = Biotransformation and enzyme kinetics of filapixant in human liver microsomes; assay type: in vitro ADME; settings: for Vmax of metabolite formation: filapixant in human liver microsomes (0.5 mg/mL), 30 min incubation; for Km at 30 min: human, human liver microsomes, probe filapixant (substrate), read-out: Km,app of metabolite formation
[7] = target: T5, CYP4F2 (Homo sapiens, UniProt P78329); assay: Incubation of [3H]filapixant with human recombinant CYP4F2 (Supersomes); assay type: in vitro ADME; settings: 1 µM [3H]filapixant, CYP4F2, 60 min
T5 construct: purchased
T5 sequence (P78329 5-520): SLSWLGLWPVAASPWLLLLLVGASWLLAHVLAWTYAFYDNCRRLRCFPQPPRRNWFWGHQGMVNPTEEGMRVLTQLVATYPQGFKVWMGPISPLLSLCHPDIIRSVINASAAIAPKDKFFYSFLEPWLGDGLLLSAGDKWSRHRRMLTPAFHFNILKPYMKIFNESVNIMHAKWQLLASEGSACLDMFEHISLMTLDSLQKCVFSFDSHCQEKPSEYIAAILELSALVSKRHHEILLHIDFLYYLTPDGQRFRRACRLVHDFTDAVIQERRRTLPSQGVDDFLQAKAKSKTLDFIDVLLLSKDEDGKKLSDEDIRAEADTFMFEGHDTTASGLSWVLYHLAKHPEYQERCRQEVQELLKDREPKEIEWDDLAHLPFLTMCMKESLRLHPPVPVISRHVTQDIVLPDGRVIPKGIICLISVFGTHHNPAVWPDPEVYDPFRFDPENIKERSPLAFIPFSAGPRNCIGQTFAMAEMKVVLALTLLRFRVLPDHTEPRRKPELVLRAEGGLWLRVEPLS

[8] = target: T6, CYP2C9 (Homo sapiens, UniProt P11712); assay: Incubation of [3H]filapixant with human recombinant CYP2C9 (Supersomes); assay type: in vitro ADME; settings: 1 µM [3H]filapixant, CYP2C9, 60 min
T6 construct: purchased

[9] = Biotransformation of [3H]filapixant in human hepatocytes; assay type: in vitro ADME; settings: [3H]filapixant 1 µM, 4 h of incubation, range in three batches
Experimental: as §1

[10] = insect, 1 h, 1 µM
[11] = target: T7, CYP2C19 (Homo sapiens, UniProt P33261); assay: Incubation of [3H]filapixant with human recombinant CYP2C19 (Supersomes); assay type: in vitro ADME; settings: 1 µM [3H]filapixant, CYP2C19, 60 min
T7 construct: purchased

[12] = target: T8, CYP2J2 (Homo sapiens, UniProt P51589); assay: Incubation of filapixant with human recombinant CYP2J2 (Supersomes); assay type: in vitro ADME; settings: 1 µM [3H]filapixant, CYP2J2, 60 min
T8 construct: purchased
T8 sequence (P51589 1-502): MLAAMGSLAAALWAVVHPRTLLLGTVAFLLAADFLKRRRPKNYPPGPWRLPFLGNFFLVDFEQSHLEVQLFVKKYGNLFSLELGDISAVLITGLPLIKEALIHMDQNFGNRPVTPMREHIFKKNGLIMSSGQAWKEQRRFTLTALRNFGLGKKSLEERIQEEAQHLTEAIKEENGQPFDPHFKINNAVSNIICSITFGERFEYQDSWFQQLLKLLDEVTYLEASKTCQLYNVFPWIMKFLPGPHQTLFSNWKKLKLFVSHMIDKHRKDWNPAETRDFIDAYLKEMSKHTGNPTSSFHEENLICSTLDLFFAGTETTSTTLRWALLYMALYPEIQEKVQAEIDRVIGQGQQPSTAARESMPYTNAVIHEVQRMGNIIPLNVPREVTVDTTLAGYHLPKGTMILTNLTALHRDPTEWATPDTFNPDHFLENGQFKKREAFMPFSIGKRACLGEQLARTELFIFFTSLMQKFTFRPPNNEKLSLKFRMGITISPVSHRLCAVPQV

[13] = target: T9, CYP2D6 (Homo sapiens, UniProt P10635); assay: Incubation of filapixant with human recombinant CYP2D6 (Supersomes); assay type: in vitro ADME; settings: 1 µM [3H]filapixant, CYP2D6, 60 min
T9 construct: purchased
T9 sequence (P10635 whole entry): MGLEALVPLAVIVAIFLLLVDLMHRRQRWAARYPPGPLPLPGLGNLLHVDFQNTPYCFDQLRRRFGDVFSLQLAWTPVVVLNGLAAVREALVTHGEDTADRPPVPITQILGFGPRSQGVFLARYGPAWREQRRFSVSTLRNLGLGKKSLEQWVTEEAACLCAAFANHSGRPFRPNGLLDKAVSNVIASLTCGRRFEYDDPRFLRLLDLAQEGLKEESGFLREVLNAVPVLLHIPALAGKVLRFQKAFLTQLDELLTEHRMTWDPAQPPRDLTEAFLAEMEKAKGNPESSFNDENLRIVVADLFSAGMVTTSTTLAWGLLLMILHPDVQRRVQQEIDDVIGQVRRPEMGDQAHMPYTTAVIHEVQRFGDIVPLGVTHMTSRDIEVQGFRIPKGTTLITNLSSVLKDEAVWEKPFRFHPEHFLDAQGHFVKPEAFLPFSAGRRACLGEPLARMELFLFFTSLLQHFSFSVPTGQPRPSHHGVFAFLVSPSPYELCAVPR

T4 sequence (P08684 whole entry): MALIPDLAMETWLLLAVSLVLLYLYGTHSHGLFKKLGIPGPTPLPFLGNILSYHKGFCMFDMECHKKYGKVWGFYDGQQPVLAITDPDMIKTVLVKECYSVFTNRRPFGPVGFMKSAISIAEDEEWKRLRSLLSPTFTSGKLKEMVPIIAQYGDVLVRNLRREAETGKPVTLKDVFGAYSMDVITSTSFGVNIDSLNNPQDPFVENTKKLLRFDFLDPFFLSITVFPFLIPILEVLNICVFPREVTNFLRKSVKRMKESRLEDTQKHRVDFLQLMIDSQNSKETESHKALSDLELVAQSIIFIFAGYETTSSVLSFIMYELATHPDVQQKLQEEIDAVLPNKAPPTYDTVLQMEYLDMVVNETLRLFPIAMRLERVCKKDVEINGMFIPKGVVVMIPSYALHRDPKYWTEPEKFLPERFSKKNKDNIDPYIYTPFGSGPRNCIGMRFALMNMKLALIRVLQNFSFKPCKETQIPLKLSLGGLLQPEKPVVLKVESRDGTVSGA
T6 sequence (P11712 whole entry): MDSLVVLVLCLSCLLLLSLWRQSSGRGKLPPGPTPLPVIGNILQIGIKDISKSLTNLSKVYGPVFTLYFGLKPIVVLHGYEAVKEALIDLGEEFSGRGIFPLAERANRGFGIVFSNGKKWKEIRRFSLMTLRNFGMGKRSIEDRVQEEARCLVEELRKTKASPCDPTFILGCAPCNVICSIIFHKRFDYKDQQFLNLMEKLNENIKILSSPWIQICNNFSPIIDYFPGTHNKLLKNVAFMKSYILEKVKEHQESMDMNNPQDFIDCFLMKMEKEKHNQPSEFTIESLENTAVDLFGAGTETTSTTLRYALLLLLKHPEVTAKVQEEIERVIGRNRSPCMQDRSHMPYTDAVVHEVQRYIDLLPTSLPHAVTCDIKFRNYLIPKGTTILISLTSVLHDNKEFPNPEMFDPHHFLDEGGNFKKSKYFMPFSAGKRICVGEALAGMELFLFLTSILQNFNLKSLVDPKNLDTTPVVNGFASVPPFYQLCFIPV
T3 sequence (P20815 whole entry): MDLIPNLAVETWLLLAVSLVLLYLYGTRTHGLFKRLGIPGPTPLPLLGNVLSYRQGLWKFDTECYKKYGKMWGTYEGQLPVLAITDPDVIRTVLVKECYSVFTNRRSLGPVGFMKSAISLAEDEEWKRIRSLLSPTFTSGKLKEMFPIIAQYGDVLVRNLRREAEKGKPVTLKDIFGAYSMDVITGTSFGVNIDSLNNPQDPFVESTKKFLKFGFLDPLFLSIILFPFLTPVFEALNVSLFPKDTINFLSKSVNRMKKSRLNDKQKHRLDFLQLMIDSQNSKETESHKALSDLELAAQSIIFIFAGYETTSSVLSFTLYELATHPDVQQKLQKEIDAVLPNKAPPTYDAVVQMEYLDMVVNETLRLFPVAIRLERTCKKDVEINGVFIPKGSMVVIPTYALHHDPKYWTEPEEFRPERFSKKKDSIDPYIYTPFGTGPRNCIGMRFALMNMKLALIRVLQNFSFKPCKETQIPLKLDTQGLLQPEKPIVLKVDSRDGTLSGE
T7 sequence (P33261 whole entry): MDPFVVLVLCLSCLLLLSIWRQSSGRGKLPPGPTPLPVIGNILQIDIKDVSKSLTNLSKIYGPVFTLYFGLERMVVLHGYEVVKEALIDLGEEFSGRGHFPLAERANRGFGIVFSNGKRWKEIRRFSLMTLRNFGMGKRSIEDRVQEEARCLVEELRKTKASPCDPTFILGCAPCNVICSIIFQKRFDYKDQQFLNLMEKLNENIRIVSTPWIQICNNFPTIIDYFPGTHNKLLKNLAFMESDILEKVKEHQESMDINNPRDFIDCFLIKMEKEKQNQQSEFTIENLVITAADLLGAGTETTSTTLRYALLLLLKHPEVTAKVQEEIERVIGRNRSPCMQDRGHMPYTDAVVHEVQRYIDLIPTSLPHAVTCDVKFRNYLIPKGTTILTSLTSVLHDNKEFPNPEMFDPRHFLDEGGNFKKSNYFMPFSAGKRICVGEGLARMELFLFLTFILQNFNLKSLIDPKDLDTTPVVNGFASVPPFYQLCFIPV

With Cc1cnc(-c2cc(O)cc(C(=O)N[C@H](C)c3cnc(C(F)(F)F)nc3)c2)s1 [M-6] the “Remaining drug and formation of metabolites, Peak Area” value (from here on “Remaining drug and formation”) [1] was 0.4 % of Radioactivity, the “Recovery of filapixant and metabolite formation, Liver Microsomes” value (“Recovery … Liver Microsomes” below) [2] was 4.4 % of radioactivity and the “Remaining drug and formation” value [3] was 0.5 % of Radioactivity. For the same compound, the “Remaining drug and formation” value [4] was 0.8 % of Radioactivity, the “Remaining drug and formation” value [5] was 6.0 % of Radioactivity and the “Vmax of metabolite formation” value [5] was 7.78E+04 peak area/pmol CYP/min. The “Vmax of metabolite formation” value [6] was 1.32E+05 peak area/pmol CYP/min and the Km at 30 min [6] was 68 µM.
For C[C@@H](NC(=O)c1cc(OC[C@H]2CN(C)CCO2)cc(-c2ncc(C(=O)O)s2)c1)c1cnc(C(F)(F)F)nc1 [M-5], the “Remaining drug and formation” value [7] was 0.5 % of Radioactivity, the “Remaining drug and formation” value [8] was 0.2 % of Radioactivity and the “Remaining drug and formation” value [5] was 0.4 % of Radioactivity. For the same compound, the “Recovery of filapixant and metabolite formation, Hepatocytes” value (shortened to “Recovery … Hepatocytes”) [9] was 0–0.2 % of radioactivity.
In the case of Cc1cnc(-c2cc(OC[C@H](O)CN)cc(C(=O)N[C@H](C)c3cnc(C(F)(F)F)nc3)c2)s1 [M-11], the “Remaining drug and formation” value [5] is reported as 1.9 % of Radioactivity, the “Remaining drug and formation” value [10] is reported as 0.2 % of Radioactivity and the “Recovery … Hepatocytes” value [9] is reported as 0–0.3 % of radioactivity.
With CNC[C@@H](O)COc1cc(C(=O)N[C@H](C)c2cnc(C(F)(F)F)nc2)cc(-c2ncc(C)s2)c1 [M-8] the “Recovery … Liver Microsomes” value [2] was 2.4 % of radioactivity, the “Remaining drug and formation” value [3] was 0.7 % of Radioactivity and the “Remaining drug and formation” value [8] was 0.2 % of Radioactivity. The “Remaining drug and formation” value [11] was 0.2 % of Radioactivity, the “Remaining drug and formation” value [5] was 3.4 % of Radioactivity and the “Vmax of metabolite formation” value [5] was 2.48E+04 peak area/pmol CYP/min. The “Remaining drug and formation” value [12] was 0.7 % of Radioactivity, the “Recovery … Hepatocytes” value [9] was 0–1.7 % of radioactivity and the “Vmax of metabolite formation” value [6] was 4.34E+04 peak area/pmol CYP/min. For the same compound, the Km at 30 min [6] was 28.5 µM.
In the case of C[C@@H](NC(=O)c1cc(OC[C@H]2CN(C)CCO2)cc(-c2ncc(CO)s2)c1)c1cnc(C(F)(F)F)nc1 [M-3], the “Recovery … Liver Microsomes” value [2] is reported as 0.9 % of radioactivity, the “Remaining drug and formation” value [3] is reported as 2.9 % of Radioactivity and the “Remaining drug and formation” value [13] is reported as 5.4 % of Radioactivity. For the same compound, the “Remaining drug and formation” value [5] was 0.5 % of Radioactivity, the “Remaining drug and formation” value [12] was 0.9 % of Radioactivity and the “Recovery … Hepatocytes” value [9] was 0.4–0.8 % of radioactivity.
